In PubChem BioAssay (NCI):
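Results reflect a 48-hour exposure of cells in 96-well plates to compound at five concentrations. TGI is the concentration that stops growth completely.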

Key:
Experiment in all cases: NCI-60 cell line screen, 48 h
HOP-62 NSCLC = test system: HOP-62 NSCLC
SK-MEL-2 melanoma = test system: SK-MEL-2 melanoma
MCF7 breast = test system: MCF7 breast
EKVX NSCLC = test system: EKVX NSCLC
TK-10 renal = test system: TK-10 renal
OVCAR-3 ovarian = test system: OVCAR-3 ovarian
NCI-H23 lung = test system: NCI-H23 lung
LOX IMVI melanoma = test system: LOX IMVI melanoma
ACHN renal = test system: ACHN renal
A549 NSCLC = test system: A549 NSCLC
BT-549 breast = test system: BT-549 breast
UO-31 renal = test system: UO-31 renal
SNB-19 CNS = test system: SNB-19 CNS
DU-145 prostate = test system: DU-145 prostate
MDA-N = test system: MDA-N
MALME-3M melanoma = test system: MALME-3M melanoma
HCT-116 colon = test system: HCT-116 colon
HCC-2998 colon = test system: HCC-2998 colon
UACC-62 melanoma = test system: UACC-62 melanoma
NCI/ADR-RES ovarian = test system: NCI/ADR-RES ovarian
M14 melanoma = test system: M14 melanoma
SN12C renal = test system: SN12C renal
MDA-MB-435 = test system: MDA-MB-435
A498 renal = test system: A498 renal
OVCAR-8 ovarian = test system: OVCAR-8 ovarian
SW-620 colon = test system: SW-620 colon
MDA-MB-231 breast = test system: MDA-MB-231 breast
CCRF-CEM leukemia = test system: CCRF-CEM leukemia
786-0 renal = test system: 786-0 renal
HOP-92 NSCLC = test system: HOP-92 NSCLC
SK-MEL-28 melanoma = test system: SK-MEL-28 melanoma
RXF 393 renal = test system: RXF 393 renal
SK-OV-3 ovarian = test system: SK-OV-3 ovarian
OVCAR-4 ovarian = test system: OVCAR-4 ovarian
HL-60(TB) leukemia = test system: HL-60(TB) leukemia
OVCAR-5 ovarian = test system: OVCAR-5 ovarian
T-47D breast = test system: T-47D breast
PC-3 prostate = test system: PC-3 prostate
RPMI-8226 leukemia = test system: RPMI-8226 leukemia
U251 CNS = test system: U251 CNS
NCI-H226 lung = test system: NCI-H226 lung
SF-539 CNS = test system: SF-539 CNS
NCI-H460 lung = test system: NCI-H460 lung
CAKI-1 renal = test system: CAKI-1 renal
UACC-257 melanoma = test system: UACC-257 melanoma
SK-MEL-5 melanoma = test system: SK-MEL-5 melanoma
SR leukemia = test system: SR leukemia
SF-268 CNS = test system: SF-268 CNS
SF-295 CNS = test system: SF-295 CNS
HS 578T breast = test system: HS 578T breast
HT29 colon = test system: HT29 colon
COLO 205 colon = test system: COLO 205 colon
IGROV1 ovarian = test system: IGROV1 ovarian
HCT-15 colon = test system: HCT-15 colon
KM12 colon = test system: KM12 colon
NCI-H522 lung = test system: NCI-H522 lung
MOLT-4 leukemia = test system: MOLT-4 leukemia
K-562 leukemia = test system: K-562 leukemia
SNB-75 CNS = test system: SNB-75 CNS

Structure (SMILES): CC(=O)OC1/C(=C/c2ccc([N+](=O)[O-])cc2)C[C@H]2[C@@H]3CC=C4C[C@@H](OC(C)=O)CC[C@]4(C)[C@H]3CC[C@]12C (stereo partly drawn)
- TGI (HOP-62 NSCLC): > 100 µM
- TGI (SK-MEL-2 melanoma): > 100 µM
- TGI (MCF7 breast): > 100 µM
- TGI (EKVX NSCLC): > 100 µM
- TGI (TK-10 renal): > 80.3 µM
- TGI (OVCAR-3 ovarian): > 100 µM
- TGI (NCI-H23 lung): > 100 µM
- TGI (LOX IMVI melanoma): > 100 µM
- TGI (ACHN renal): > 100 µM
- TGI (A549 NSCLC): > 100 µM
- TGI (BT-549 breast): > 100 µM
- TGI (UO-31 renal): > 100 µM
- TGI (SNB-19 CNS): > 100 µM
- TGI (DU-145 prostate): > 100 µM
- TGI (MDA-N): > 100 µM
- TGI (MALME-3M melanoma): > 100 µM
- TGI (HCT-116 colon): > 100 µM
- TGI (HCC-2998 colon): > 100 µM
- TGI (UACC-62 melanoma): > 100 µM
- TGI (NCI/ADR-RES ovarian): > 100 µM
- TGI (M14 melanoma): > 100 µM
- TGI (SN12C renal): > 100 µM
- TGI (MDA-MB-435): > 100 µM
- TGI (A498 renal): > 96.2 µM
- TGI (OVCAR-8 ovarian): > 100 µM
- TGI (SW-620 colon): > 100 µM
- TGI (MDA-MB-231 breast): > 100 µM
- TGI (CCRF-CEM leukemia): > 64.8 µM
- TGI (786-0 renal): > 100 µM
- TGI (HOP-92 NSCLC): > 100 µM
- TGI (SK-MEL-28 melanoma): > 100 µM
- TGI (RXF 393 renal): 60.4 µM
- TGI (SK-OV-3 ovarian): > 100 µM
- TGI (OVCAR-4 ovarian): > 100 µM
- TGI (HL-60(TB) leukemia): 13.3 µM
- TGI (OVCAR-5 ovarian): > 100 µM
- TGI (T-47D breast): > 100 µM
- TGI (PC-3 prostate): > 100 µM
- TGI (RPMI-8226 leukemia): > 100 µM
- TGI (U251 CNS): > 100 µM
- TGI (NCI-H226 lung): > 100 µM
- TGI (SF-539 CNS): > 100 µM
- TGI (NCI-H460 lung): > 100 µM
- TGI (CAKI-1 renal): > 100 µM
- TGI (UACC-257 melanoma): > 100 µM
- TGI (SK-MEL-5 melanoma): > 100 µM
- TGI (SR leukemia): > 20.7 µM
- TGI (SF-268 CNS): > 100 µM
- TGI (SF-295 CNS): > 100 µM
- TGI (HS 578T breast): > 100 µM
- TGI (HT29 colon): > 100 µM
- TGI (COLO 205 colon): > 100 µM
- TGI (IGROV1 ovarian): > 100 µM
- TGI (HCT-15 colon): > 100 µM
- TGI (KM12 colon): > 100 µM
- TGI (NCI-H522 lung): > 100 µM

Structure (SMILES): O=C1C(C(O)(C(F)(F)Cl)C(F)(F)Cl)CCC1C(O)(C(F)(F)Cl)C(F)(F)Cl (stereo not drawn)
- TGI (HOP-62 NSCLC): > 10 µM
- TGI (SK-MEL-2 melanoma): 5.72 µM
- TGI (MCF7 breast): > 10 µM
- TGI (EKVX NSCLC): > 10 µM
- TGI (TK-10 renal): > 10 µM
- TGI (OVCAR-3 ovarian): > 10 µM
- TGI (NCI-H23 lung): 6.19 µM
- TGI (LOX IMVI melanoma): > 10 µM
- TGI (ACHN renal): > 10 µM
- TGI (A549 NSCLC): > 10 µM
- TGI (BT-549 breast): > 10 µM
- TGI (SNB-19 CNS): > 10 µM
- TGI (DU-145 prostate): > 10 µM
- TGI (MDA-N): > 10 µM
- TGI (MALME-3M melanoma): > 10 µM
- TGI (HCT-116 colon): 5.71 µM
- TGI (HCC-2998 colon): > 10 µM
- TGI (UACC-62 melanoma): > 10 µM
- TGI (NCI/ADR-RES ovarian): > 10 µM
- TGI (M14 melanoma): > 10 µM
- TGI (SN12C renal): > 10 µM
- TGI (MDA-MB-435): > 10 µM
- TGI (A498 renal): > 10 µM
- TGI (OVCAR-8 ovarian): > 10 µM
- TGI (SW-620 colon): > 10 µM
- TGI (MDA-MB-231 breast): > 10 µM
- TGI (786-0 renal): > 10 µM
- TGI (HOP-92 NSCLC): 5.39 µM
- TGI (SK-MEL-28 melanoma): > 10 µM
- TGI (RXF 393 renal): > 10 µM
- TGI (MOLT-4 leukemia): > 10 µM
- TGI (SK-OV-3 ovarian): > 10 µM
- TGI (OVCAR-4 ovarian): > 10 µM
- TGI (HL-60(TB) leukemia): > 10 µM
- TGI (OVCAR-5 ovarian): > 10 µM
- TGI (T-47D breast): > 10 µM
- TGI (K-562 leukemia): > 10 µM
- TGI (PC-3 prostate): > 10 µM
- TGI (RPMI-8226 leukemia): > 10 µM
- TGI (U251 CNS): > 10 µM
- TGI (NCI-H226 lung): 9.46 µM
- TGI (SF-539 CNS): 8.56 µM
- TGI (NCI-H460 lung): > 10 µM
- TGI (CAKI-1 renal): 9.69 µM
- TGI (UACC-257 melanoma): > 10 µM
- TGI (SK-MEL-5 melanoma): > 10 µM
- TGI (SR leukemia): > 10 µM
- TGI (SF-268 CNS): > 10 µM
- TGI (SF-295 CNS): 5.99 µM
- TGI (HS 578T breast): 5.44 µM
- TGI (HT29 colon): > 10 µM
- TGI (COLO 205 colon): > 10 µM
- TGI (SNB-75 CNS): > 10 µM
- TGI (IGROV1 ovarian): > 10 µM
- TGI (HCT-15 colon): > 10 µM
- TGI (KM12 colon): > 10 µM
- TGI (NCI-H522 lung): > 10 µM
